Measurements from patent US8642554B2, “Smac mimetic dimers and trimers useful as anti-cancer agents” (Joyant Pharmaceuticals, Inc., priority 2007, dated 2014).

Legend:
HCC461 cells = test: Cell viability assay in HCC461 cells (WST-1); type: cell-based; conditions: 48 hrs incubation
Procedure: HCC461 cells plated in 96 well plates at 5×10^4/ml cell density are treated with 50× synthetic Smac mimetic compounds (final concentration range between 30 uM and 0.001 uM). After 48 hrs incubation at 37° C. and 5% CO2 viability of the cells are measured using Cell Proliferation Reagent WST-1 assay kit (Roche Cat #11 644 807 001).
WST-1 assay principle: The tetrazolium salts are cleaved to formazan by cellular enzymes. An expansion in the number of viable cells results in an increase in the overall activity of mitochondrial dehydrogenases in the samples. This augmentation in the enzyme activity leads to an increase in the amount of formazan dye formed, which directly correlates to the number of metabolically active cells in the culture. Quantification of the formazan dye produced by metabolically active cells by using a microplate (ELISA) reader at 420-480 nm.

[1] = molecular target: truncated XIAP containing only BIR1, BIR2, and BIR3 domains (Homo sapiens, UniProt P98170); test: Fluorescent polarization (FP) assay; type: binding
Procedure: Increasing concentrations of Smac compounds are incubated with 2 nM of labeled peptide (fluorescein labeled 10mer peptide with AVPI 4 amino acids at its N terminus-Alexa Fluor 488) and truncated XIAP containing only BIR1, BIR2, and BIR3 domains at room temperature for 1 hour. Fluorescence reading, indicative of the bound portion of the labeled peptide, is measured in milipolarization units (mP). The more compound added, less fluorescein labeled peptide bind to the protein due to the competitive binding and less fluorescence signal is released.
Based on this principle, we obtain the Ki value that evaluates compound's binding affinity.

[2] = tested on: Caspase3 activity in Hela S100 (blocked by IAPs); test: In vitro caspase-3 activation assay in Hela S100; type: biochemical; conditions: 100 nM compound, activity compared with reference compound, Table 1 experiment
Procedure: Caspase3 in most cell extracts can be activated by the addition of 1 mM dATP through the mitochondria caspase pathway. […] Taking advantage of this feature, we use 100 nM of synthetic Smac mimetic compound to test its ability to eliminate IAPs in the Hela S100 and fully induce Caspase3 activity. The In Vitro Caspase3 assay is carried out at 30° C., incubating 100 nM compounds with 30 ug of Hela S100, 1 mM dATP, 10 uM Caspase3 fluorogenic substrate (Caspase3 Substrate II, Fluorogenic, #235425 from Calbiochem). The readout is caspase-3 activity represented by relative fluorogenic unit, which is recorded kinetically. The slope in linear region of the curve for each compound is calculated.
Percent activity data is presented by comparing activity of the test compound with activity of the reference compound in Caspase-3 activation assay in vitro. The ratio of each synthetic compound's slope versus the slope of control reflects in vitro caspase-3 activation ability of compounds.

[3] = HCC461, 48 h, Table 2 experiment
[4] = HCC461, 48 h, Table 1 experiment

Sequence of truncated XIAP containing only BIR1, BIR2, and BIR3 domains (P98170 26-330 limits assumed): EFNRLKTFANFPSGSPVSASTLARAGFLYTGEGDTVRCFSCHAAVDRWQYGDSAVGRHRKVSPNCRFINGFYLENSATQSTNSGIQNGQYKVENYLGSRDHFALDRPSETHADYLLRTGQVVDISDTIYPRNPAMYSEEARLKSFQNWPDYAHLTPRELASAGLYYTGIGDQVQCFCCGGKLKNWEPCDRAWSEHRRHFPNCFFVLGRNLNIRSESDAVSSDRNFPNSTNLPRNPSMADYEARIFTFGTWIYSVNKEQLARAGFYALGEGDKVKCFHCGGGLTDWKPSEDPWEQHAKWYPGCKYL

Row | Structure (SMILES) | IC50 (HCC461 cells; [3]) [µM] | Ki ([1]; Table 2 experiment) [µM] | IC50 (HCC461 cells; [4]) [µM] | % Activity at 100 nM [2] [%] | Ki ([1]; Table 1 experiment) [µM] | further results
1 | CN[C@@H](C)C(=O)N[C@H](C(=O)N1C[C@@H](NC(=O)c2cc(N)cc(C(=O)N[C@H]3C[C@@H](C(=O)N[C@@H]4CCCc5ccccc54)N(C(=O)[C@@H](NC(=O)[C@H](C)NC)C(C)(C)C)C3)c2)C[C@H]1C(=O)N[C@@H]1CCCc2ccccc21)C(C)(C)C [compound 32] | 0.015 | 0.23 | – | – | – | –
2 | CN[C@@H](C)C(=O)NC(C(=O)C1C[C@@H](NC(=O)C2CCCC2C(=O)N[C@H]2CC(C(=O)N[C@@H]3CCCc4ccccc43)N(C(=O)[C@@H](NC(=O)[C@H](C)NC)C(C)(C)C)C2)CC1C(=O)N[C@@H]1CCCc2ccccc21)C(C)(C)C (stereo partly shown) [compound 23] | – | 0.05 | – | – | – | IC50 (HCC461 cells; Table 2 experiment): 0.002 µM
3 | CN[C@@H](C)C(=O)N[C@H](C(=O)N1C[C@@H](NC(=O)CN(C)CC(=O)N[C@H]2C[C@@H](C(=O)N[C@@H]3CCCc4ccccc43)N(C(=O)[C@@H](NC(=O)[C@H](C)NC)C(C)(C)C)C2)C[C@H]1C(=O)N[C@@H]1CCCc2ccccc21)C(C)(C)C.Cl.Cl.Cl [compound 16] | – | – | 0.074 | 115 | 0.4 | –
4 | C#CC[C@H](NC(=O)[C@H](C)NC)C(=O)N1C[C@@H](NC(=O)[C@H](O)[C@@H](O)C(=O)N[C@H]2C[C@@H](C(=O)N[C@@H]3CCCc4ccccc43)N(C(=O)[C@H](CC#C)NC(=O)[C@H](C)NC)C2)C[C@H]1C(=O)N[C@@H]1CCCc2ccccc21 [compound 22] | – | – | 0.263 | – | – | –
5 | C#CC[C@H](NC(=O)[C@H](C)NC)C(=O)N1C[C@@H](NC(=O)c2cccc(C(=O)N[C@H]3C[C@@H](C(=O)N[C@@H]4CCCc5ccccc54)N(C(=O)[C@H](CC#C)NC(=O)[C@H](C)NC)C3)n2)C[C@H]1C(=O)N[C@@H]1CCCc2ccccc21 [compound 20] | – | – | 0.222 | – | – | –
6 | CN[C@@H](C)C(=O)NC(C(=O)C1C[C@@H](NC(=O)C2CCCC2C(=O)N[C@H]2CC(C(=O)N[C@@H]3CCCc4ccccc43)N(C(=O)[C@@H](NC(=O)[C@H](C)NC)C(C)(C)C)C2)CC1C(=O)N[C@@H]1CCCc2ccccc21)C(C)(C)C (stereo partly shown) [compound 24] | – | 0.35 | – | – | – | IC50 (HCC461 cells; Table 2 experiment): 0.021 µM
7 | CN[C@@H](C)C(=O)NC(C(=O)C1C[C@@H](NC(=O)C2CCCC2C(=O)N[C@H]2CC(C(=O)N[C@@H]3CCCc4ccccc43)N(C(=O)[C@@H](NC(=O)[C@H](C)NC)C(C)(C)C)C2)CC1C(=O)N[C@@H]1CCCc2ccccc21)C(C)(C)C.Cl.Cl (single isomer, unassigned) [compound 17] | – | – | 0.019 | – | 0.5 | % Activity at 100 nM ([2]; 0.1 µM): 92%
8 | CN[C@@H](C)C(=O)N[C@H](C(=O)N1C[C@@H](NC(=O)c2c(F)c(F)c(F)c(C(=O)N[C@H]3C[C@@H](C(=O)N[C@@H]4CCCc5ccccc54)N(C(=O)[C@@H](NC(=O)[C@H](C)NC)C(C)(C)C)C3)c2F)C[C@H]1C(=O)N[C@@H]1CCCc2ccccc21)C(C)(C)C [compound 28] | 0.002 | 0.23 | – | – | – | –
9 | CN[C@@H](C)C(=O)N[C@H](C(=O)N1C[C@@H](NC(=O)CC(C)(O)CC(=O)N[C@H]2C[C@@H](C(=O)N[C@@H]3CCCc4ccccc43)N(C(=O)[C@@H](NC(=O)[C@H](C)NC)C(C)(C)C)C2)C[C@H]1C(=O)N[C@@H]1CCCc2ccccc21)C(C)(C)C [compound 26] | 0.023 | 0.32 | – | – | – | –
10 | CN[C@@H](C)C(=O)N[C@H](C(=O)N1C[C@@H](NC(=O)[C@H](O)[C@@H](O)C(=O)N[C@H]2C[C@@H](C(=O)N[C@@H]3CCCc4ccccc43)N(C(=O)[C@@H](NC(=O)[C@H](C)NC)C(C)(C)C)C2)C[C@H]1C(=O)N[C@@H]1CCCc2ccccc21)C(C)(C)C [compound 21] | – | – | 0.101 | – | – | –
11 | CN[C@@H](C)C(=O)N[C@H](C(=O)N1C[C@@H](NC(=O)c2cc(O)cc(C(=O)N[C@H]3C[C@@H](C(=O)N[C@@H]4CCCc5ccccc54)N(C(=O)[C@@H](NC(=O)[C@H](C)NC)C(C)(C)C)C3)c2)C[C@H]1C(=O)N[C@@H]1CCCc2ccccc21)C(C)(C)C.Cl.Cl [compound 14] | – | – | 0.026 | 86 | 0.44 | –
12 | CN[C@@H](C)C(=O)N[C@H](C(=O)N1C[C@@H](NC(=O)COCC(=O)N[C@H]2C[C@@H](C(=O)N[C@@H]3CCCc4ccccc43)N(C(=O)[C@@H](NC(=O)[C@H](C)NC)C(C)(C)C)C2)C[C@H]1C(=O)N[C@@H]1CCCc2ccccc21)C(C)(C)C [compound 27] | 0.082 | 0.25 | – | – | – | –
13 | CN[C@@H](C)C(=O)NC(C(=O)C1C[C@@H](NC(=O)C2CCCC(C(=O)N[C@H]3CC(C(=O)N[C@@H]4CCCc5ccccc54)N(C(=O)[C@@H](NC(=O)[C@H](C)NC)C(C)(C)C)C3)C2)CC1C(=O)N[C@@H]1CCCc2ccccc21)C(C)(C)C (stereo partly shown) [compound 25] | 0.024 | 0.25 | – | – | – | –

Further lines, with some results ahead:

Row | IC50 (HCC461 cells; [3]) [µM] | Ki ([1]; Table 2 experiment) [µM] | IC50 (HCC461 cells; [4]) [µM] | % Activity at 100 nM [2] [%] | Ki ([1]; Table 1 experiment) [µM] | Structure (SMILES) | further results
14 | – | – | 0.002 | 104 | 0.4 | CN[C@@H](C)C(=O)N[C@H](C(=O)N1C[C@@H](NC(=O)c2ccc(C(=O)N[C@H]3C[C@@H](C(=O)N[C@@H]4CCCc5ccccc54)N(C(=O)[C@@H](NC(=O)[C@H](C)NC)C(C)(C)C)C3)s2)C[C@H]1C(=O)N[C@@H]1CCCc2ccccc21)C(C)(C)C.Cl.Cl [compound 12] | –
15 | – | – | 0.007 | 120 | 0.45 | CN[C@@H](C)C(=O)NC(C(=O)C1C[C@@H](NC(=O)c2cccc(C(=O)N[C@H]3CC(C(=O)N[C@@H]4CCCc5ccccc54)N(C(=O)[C@@H](NC(=O)[C@H](C)NC)C(C)(C)C)C3)c2)CC1C(=O)N[C@@H]1CCCc2ccccc21)C(C)(C)C.Cl.Cl (stereo partly shown) [compound 19] | –
16 | – | – | 0.026 | 108 | 0.3 | CN[C@@H](C)C(=O)N[C@H](C(=O)N1C[C@@H](NS(=O)(=O)c2cccc(S(=O)(=O)N[C@H]3C[C@@H](C(=O)N[C@@H]4CCCc5ccccc54)N(C(=O)[C@@H](NC(=O)[C@H](C)NC)C(C)(C)C)C3)c2)C[C@H]1C(=O)N[C@@H]1CCCc2ccccc21)C(C)(C)C.Cl.Cl [compound 13] | –
17 | – | – | 0.009 | 116 | 0.45 | CN[C@@H](C)C(=O)N[C@H](C(=O)N1C[C@@H](NC(=O)c2cc(C(=O)N[C@H]3C[C@@H](C(=O)N[C@@H]4CCCc5ccccc54)N(C(=O)[C@@H](NC(=O)[C@H](C)NC)C(C)(C)C)C3)[nH]n2)C[C@H]1C(=O)N[C@@H]1CCCc2ccccc21)C(C)(C)C.Cl.Cl [compound 15] | –
18 | 0.003 | 0.34 | – | – | – | CN[C@@H](C)C(=O)N[C@H](C(=O)N1C[C@@H](NC(=O)[C@@H]2CC[C@](C)(C(=O)N[C@H]3C[C@@H](C(=O)N[C@@H]4CCCc5ccccc54)N(C(=O)[C@@H](NC(=O)[C@H](C)NC)C(C)(C)C)C3)C2(C)C)C[C@H]1C(=O)N[C@@H]1CCCc2ccccc21)C(C)(C)C [compound 31] | –
19 | – | – | – | – | 0.35 | CN[C@@H](C)C(=O)NC(C(=O)C1C[C@@H](NC(=O)C2CCCC2C(=O)N[C@H]2CC(C(=O)N[C@@H]3CCCc4ccccc43)N(C(=O)[C@@H](NC(=O)[C@H](C)NC)C(C)(C)C)C2)CC1C(=O)N[C@@H]1CCCc2ccccc21)C(C)(C)C.Cl.Cl (single isomer, unassigned) [compound 18] | IC50 (HCC461 cells; Table 1 experiment): 0.033 µM; % Activity at 100 nM ([2]; 0.1 µM): 107%
20 | 0.005 | 0.24 | – | – | – | CN[C@@H](C)C(=O)N[C@H](C(=O)N1C[C@@H](NC(=O)C23CC4CC(C2)CC(C(=O)N[C@H]2C[C@@H](C(=O)N[C@@H]5CCCc6ccccc65)N(C(=O)[C@@H](NC(=O)[C@H](C)NC)C(C)(C)C)C2)(C4)C3)C[C@H]1C(=O)N[C@@H]1CCCc2ccccc21)C(C)(C)C [compound 29] | –
21 | 0.063 | 0.15 | 0.082 | 100 | 0.35 | CN[C@@H](C)C(=O)N[C@@H](CC#CC#CC[C@H](NC(=O)[C@H](C)NC)C(=O)N1CCC[C@H]1C(=O)N[C@@H]1CCCc2ccccc21)C(=O)N1CCC[C@H]1C(=O)N[C@@H]1CCCc2ccccc21.Cl.Cl [Ref cpd, reference compound] | –
22 | 0.008 | 0.29 | – | – | – | CN[C@@H](C)C(=O)N[C@H](C(=O)N1C[C@@H](NC(=O)[C@H]2CC[C@@](C)(C(=O)N[C@H]3C[C@@H](C(=O)N[C@@H]4CCCc5ccccc54)N(C(=O)[C@@H](NC(=O)[C@H](C)NC)C(C)(C)C)C3)C2(C)C)C[C@H]1C(=O)N[C@@H]1CCCc2ccccc21)C(C)(C)C [compound 30] | –
